Data: article PMC8001995, “Sea Anemone Kunitz-Type Peptides Demonstrate Neuroprotective Activity in the 6-Hydroxydopamine Induced Neurotoxicity Model” (Biomedicines, 2021)

Key:
[1] = DPPH radical scavenging cell free assay; conditions: 10 µM compound, 30 min, absorbance 520 nm, versus MeOH control, mean ± SEM of three independent replicates
Procedure: The 2,2-diphenyl-1-picryl-hydrazyl-hydrate (DPPH) radical scavenging activity was tested as described previously. The compound solutions (120 µL) were dispensed into wells of a 96-well microplate. The DPPH (Sigma-Aldrich, Germany) was dissolved in MeOH at concentration of 7.5 µM and the solution (30 µL) was added to each well. The concentrations of tested compounds in the mixtures were 10 µM. The mixtures were shaken and left for 30 min. The absorbance of the resulting solutions was measured at λ = 520 nm with a MultiscanFC plate reader (Thermo Fisher Scientific, Waltham, MA, USA). The scavenging of the DPPH radical in comparison with control (MeOH) (%) was calculated for each compound. Ascorbic acid at 10 µM was used as positive control.

Neuro-2a cells [2] = assay: Intracellular ROS level, DCFH-DA probe, 6-OHDA-treated cells; type: cell-based, murine; conditions: 25 µM 6-OHDA 30 min, no peptide
Procedure: (§1) Neuro-2a neuroblastoma cells (ATCC® CCL-131™) were obtained from American Type Culture Collection (Manassas, VA, USA). The cells were cultivated in DMEM medium (BioloT, St. Petersburg, Russia) supplemented with 10% of fetal bovine serum (BioloT, Russia) and 1% penicillin/streptomycin (BioloT, St. Petersburg, Russia) at 37 °C and 5% CO2. Initially, cells were incubated in cultural flasks until sub-confluent (~80%). For testing, Neuro-2a cells were seeded in 96-well plates and experiments were started after 24 h.
The level of intracellular ROS was measured using the ROS sensitive dye, 2,7-dichloro-fluorescein diacetate (DCFH-DA), as a probe. In brief, Neuro-2a cells were seeded in 96-well plates at 1 × 10^4 cells/well, culturing in the presence or absence of various concentrations of tested peptides for 1 h, and then 6-OHDA (25 µM) was added in each well for 30 min at 37 °C with 5% CO2. […] The fluorescence of 2,7-dichlorofluorescein (DCF) was detected with PHERAstar FS fluorescent plate reader (BMG Labtech, Ortenberg, Germany) at λex = 485 nm and λem = 518 nm. […] The cytoprotective effect of peptides and the increase in cell viability under their action was calculated as a percentage, taking the cell viability treated with 6-OHDA as 100%.

Neuro-2a cells [3] = assay: 6-Hydroxydopamine-induced cytotoxicity (neuroprotection), MTT; type: cell-based, murine; conditions: 25 µM 6-OHDA 24 h, no peptide; versus control
Procedure: as §1
Neuro-2a cells were seeded at 1 × 10^4 cells/well in 96-well plates for studying of neuroprotective activity of peptides. The tested peptides were added to the cell monolayer and cells were incubated at 37 °C for 1 h. Then, the cells were exposed to 6-OHDA (Sigma-Aldrich, St. Louis, MO, USA) at 25 µM for 24 h at 37 °C with 5% CO2. Thereafter, the medium was replaced with clean serum-free medium, and the number of viable cells was determined by MTT assay. Neuro-2a cells were cultured without test compound or neurotoxins as the control group. Results were expressed in percentage of control as the mean ± SEM of three independent replicates.

SMILES | Scavenging of DPPH Radicals [1] | ROS level in 6-OHDA-treated cells (Neuro-2a cells [2]) | Viability of Neuro-2a cells treated with 6-OHDA (Neuro-2a cells [3])
O=C1O[C@H]([C@@H](O)CO)C(O)=C1O [Ascorbic acid] | 33.8 ± 2.4% |  | 
NCCc1cc(O)c(O)cc1O [Peptide 6-OHDA, 6-hydroxydopamine] |  | up to 130 % to the control level | 42.6%
